Measured values from PubChem BioAssay AID248 (DTP/NCI, 2004).
“And” between values parts separate entries of the source, which are not always exact repeats. Equal entries are not always repeated. Toxic doses and inconclusive results are not listed. Cut-off read from the data, not from the text of the source: active = T/C of 150% or more; inactive = T/C below 125%.

Tested on: L1210 leukemia ip in BDF1 mice, survival T/C
Assay: NCI In Vivo Anticancer Drug Screen. Data for tumor model L1210 Leukemia (intraperitoneal) in B6D2F1 (BDF1) mice
Settings: endpoint: mean survival time, higher = longer survival
How it was run: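 Transplanted-tumor mice were given test agent; controls received vehicle only. Survival readings from the two groups were divided (treated over control).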

[1] = dose: 100.0 mg/kg/injection, schedule: Q01DX009 (ip), vehicle: saline
[2] = dose: 100.0 mg/kg/injection, schedule: Q04DX003 (ip), vehicle: saline with Tween-80
[3] = dose: 200.0 mg/kg/injection, schedule: Q04DX003 (ip), vehicle: saline with Tween-80
[4] = dose: 400.0 mg/kg/injection, schedule: Q04DX003 (ip), vehicle: saline with Tween-80
[5] = dose: 25.0 mg/kg/injection, schedule: Q04DX002 (ip), vehicle: Klucel (hydroxypropylcellulose) (HPC)
[6] = dose: 50.0 mg/kg/injection, schedule: Q04DX002 (ip), vehicle: Klucel (hydroxypropylcellulose) (HPC)
[7] = dose: 50.0 mg/kg/injection, schedule: Q01DX009 (ip), vehicle: saline
[8] = dose: 100.0 mg/kg/injection, schedule: Q04DX002 (ip), vehicle: Klucel (hydroxypropylcellulose) (HPC)
[9] = dose: 100.0 mg/kg/injection, schedule: Q01DX009 (ip), vehicle: Klucel (hydroxypropylcellulose) (HPC)
[10] = dose: 100.0 mg/kg/injection, schedule: Q04DX003 (ip), vehicle: Klucel (hydroxypropylcellulose) (HPC)
[11] = dose: 200.0 mg/kg/injection, schedule: Q04DX003 (ip), vehicle: Klucel (hydroxypropylcellulose) (HPC)
[12] = dose: 400.0 mg/kg/injection, schedule: Q04DX003 (ip), vehicle: Klucel (hydroxypropylcellulose) (HPC)
[13] = dose: 100.0 mg/kg/injection, schedule: Q01DX001 (ip), vehicle: Klucel (hydroxypropylcellulose) (HPC)
[14] = dose: 200.0 mg/kg/injection, schedule: Q01DX001 (ip), vehicle: Klucel (hydroxypropylcellulose) (HPC)
[15] = dose: 200.0 mg/kg/injection, schedule: Q01DX009 (ip), vehicle: Klucel (hydroxypropylcellulose) (HPC)
[16] = dose: 400.0 mg/kg/injection, schedule: Q01DX001 (ip), vehicle: Klucel (hydroxypropylcellulose) (HPC)
[17] = dose: 400.0 mg/kg/injection, schedule: Q01DX009 (ip), vehicle: Klucel (hydroxypropylcellulose) (HPC)
[18] = dose: 100.0 mg/kg/injection, schedule: Q01DX001 (ip), vehicle: saline
[19] = dose: 200.0 mg/kg/injection, schedule: Q01DX001 (ip), vehicle: saline
[20] = dose: 100.0 mg/kg/injection, schedule: Q04DX002 (ip), vehicle: saline with Tween-80

Measured: T/C

Cc1cccc(C)c1-c1c2ccccc2cc2ccccc12
inactive: [1] 95 % of control | [2] 96 % of control | dose: 200.0 mg/kg/injection, schedule: Q01DX009 (ip), vehicle: saline 93 % of control | [3] 96 % of control | dose: 400.0 mg/kg/injection, schedule: Q01DX009 (ip), vehicle: saline 87 % of control | [4] 93 % of control

CCCCCCCCCCCC[N+](C)(C)Cc1cc(=O)c(O)co1
inactive: dose: 12.5 mg/kg/injection, schedule: Q04DX002 (ip), vehicle: saline 94 % of control | dose: 25.0 mg/kg/injection, schedule: Q04DX002 (ip), vehicle: saline 105 % of control | dose: 50.0 mg/kg/injection, schedule: Q04DX002 (ip), vehicle: saline 115 % of control

CSCCCNC(=O)NS(=O)(=O)c1ccc(C)cc1
inactive: [2] 97 % of control | [3] 100 % of control | [4] 97 % of control

CC(=O)C12OC(C)(C)OC1CC1C3CCC4=CC(=O)C=CC4(C)C3(F)C(O)CC12C (configuration not stated)
inactive: dose: 12.5 mg/kg/injection, schedule: Q04DX002 (ip), vehicle: Klucel (hydroxypropylcellulose) (HPC) 104 % of control | [5] 107 % of control | [6] 107 % of control

CCCCC(CCN1CCCC1)(CNC(=O)CN(CC)CC)c1cccc2ccccc12 (configuration not stated)
inactive: dose: 25.0 mg/kg/injection, schedule: Q01DX009 (ip), vehicle: saline 94 % of control | [5] 103 % of control | [7] 102 % of control | [6] 100 % of control | [8] 107 % of control

O=C(NC1CCCCC1)Sc1ccc(Cl)cc1
inactive: dose: 25.0 mg/kg/injection, schedule: Q01DX009 (ip), vehicle: Klucel (hydroxypropylcellulose) (HPC) 104 % of control | dose: 25.0 mg/kg/injection, schedule: Q04DX003 (ip), vehicle: Klucel (hydroxypropylcellulose) (HPC) 94 % of control | dose: 50.0 mg/kg/injection, schedule: Q01DX009 (ip), vehicle: Klucel (hydroxypropylcellulose) (HPC) 103 % of control | dose: 50.0 mg/kg/injection, schedule: Q04DX003 (ip), vehicle: Klucel (hydroxypropylcellulose) (HPC) 102 % of control | [9] 98 % of control | [10] 100 % of control and 108 % of control

Oc1c(Cl)c2nc3ccccc3nc2c2ccccc12
inactive: [10] 95 % of control | [11] 97 % of control | [12] 98 % of control

O=[N+]([O-])c1ccc(N/N=C/c2cccnc2)cc1
inactive: [13] 96 % of control | [9] 92 % of control | [14] 95 % of control | [15] 90 % of control | [16] 88 % of control | [17] 101 % of control

O=c1[nH]c(=O)c(C2OC(CO)C(O)C2O)co1 (configuration not stated)
inactive: dose: 6.25 mg/kg/injection, schedule: Q04DX003 (ip), vehicle: saline with Tween-80 123 % of control | dose: 12.5 mg/kg/injection, schedule: Q04DX003 (ip), vehicle: saline with Tween-80 106 % of control

COc1ccc(C(=O)NC(SC)C(N)=O)cc1 (configuration not stated)
inactive: [8] 90 % of control | dose: 200.0 mg/kg/injection, schedule: Q04DX002 (ip), vehicle: Klucel (hydroxypropylcellulose) (HPC) 101 % of control | dose: 400.0 mg/kg/injection, schedule: Q04DX002 (ip), vehicle: Klucel (hydroxypropylcellulose) (HPC) 93 % of control

O=C1C(=O)N(CNC(c2ccccc2)c2ccccc2)c2ccccc21
inactive: [3] 87 % of control | dose: 400.0 mg/kg/injection, schedule: Q01DX009 (ip), vehicle: saline with Tween-80 96 % of control

CC1C/C(=N/NC(=O)OC(C)(C)C)CC(C)(C)C1 (configuration not stated)
inactive: dose: 100.0 mg/kg/injection, schedule: Q01DX009 (ip), vehicle: gum acacia 96 % of control | dose: 200.0 mg/kg/injection, schedule: Q01DX009 (ip), vehicle: gum acacia 89 % of control | dose: 400.0 mg/kg/injection, schedule: Q01DX009 (ip), vehicle: gum acacia 87 % of control

Cc1cc([N+](=O)[O-])ccc1S(=O)(=O)F
inactive: [2] 100 % of control

CCC(Br)C(=O)O (configuration not stated)
inactive: [7] 96 % of control and 97 % of control | dose: 50.0 mg/kg/injection, schedule: Q04DX003 (ip), vehicle: saline 95 % of control | [18] 92 % of control | [1] 89 % of control and 91 % of control | dose: 100.0 mg/kg/injection, schedule: Q04DX002 (ip), vehicle: saline 101 % of control | dose: 100.0 mg/kg/injection, schedule: Q04DX003 (ip), vehicle: saline 100 % of control | [19] 96 % of control | dose: 200.0 mg/kg/injection, schedule: Q04DX002 (ip), vehicle: saline 105 % of control | dose: 200.0 mg/kg/injection, schedule: Q04DX003 (ip), vehicle: saline 90 % of control

CC(=O)NC(C(=O)O)C(C)C (configuration not stated)
inactive: [18] 97 % of control | [19] 87 % of control | dose: 400.0 mg/kg/injection, schedule: Q01DX001 (ip), vehicle: saline 99 % of control

Nc1n[nH]c(C(=O)O)n1
inactive: [9] 98 % of control | [10] 107 % of control | [15] 107 % of control | [11] 93 % of control | [17] 105 % of control | [12] 93 % of control

CCCCOC(=O)C1OC1(CC)c1ccccc1 (configuration not stated)
inactive: [20] 88 % of control | dose: 200.0 mg/kg/injection, schedule: Q04DX002 (ip), vehicle: saline with Tween-80 97 % of control | dose: 400.0 mg/kg/injection, schedule: Q04DX002 (ip), vehicle: saline with Tween-80 100 % of control

COc1ccc(N2C(=O)OC3(CCN(CCCC(=O)c4cccs4)CC3)C2=O)cc1
inactive: [13] 88 % of control | [14] 92 % of control | [16] 100 % of control

CCN(CC)C(=O)N1CCN(C)CC1
inactive: [9] 101 % of control | [10] 94 % of control | [15] 106 % of control | [11] 98 % of control | [17] 104 % of control | [12] 96 % of control

O=C(CBr)c1cccc2c1Nc1ccccc1S2
inactive: dose: 75.0 mg/kg/injection, schedule: Q01DX001 (ip), vehicle: saline 98 % of control

CCC(S)C(=O)Nc1ccccc1 (configuration not stated)
inactive: [2] 107 % of control | [3] 90 % of control | [4] 91 % of control

CC(C)(N)CCC(C)(C)NCCCN
inactive: dose: 100.0 mg/kg/injection, schedule: Q01DX009 (ip), vehicle: water 95 % of control | dose: 100.0 mg/kg/injection, schedule: Q04DX003 (ip), vehicle: water 100 % of control | dose: 200.0 mg/kg/injection, schedule: Q01DX009 (ip), vehicle: water 98 % of control | dose: 200.0 mg/kg/injection, schedule: Q04DX003 (ip), vehicle: water 106 % of control | dose: 400.0 mg/kg/injection, schedule: Q04DX003 (ip), vehicle: water 97 % of control

NCCSc1ccccc1
inactive: dose: 25.0 mg/kg/injection, schedule: Q04DX002 (ip), vehicle: saline with Tween-80 92 % of control | dose: 50.0 mg/kg/injection, schedule: Q04DX002 (ip), vehicle: saline with Tween-80 101 % of control | [20] 96 % of control and 114 % of control

O=C(O)C1CC=CCCC1 (configuration not stated)
inactive: [9] 96 % of control | [10] 101 % of control | [15] 96 % of control | [11] 101 % of control | [17] 93 % of control | [12] 98 % of control

BrC(Br)(c1ccccc1)C1OCCO1
inactive: dose: 50.0 mg/kg/injection, schedule: Q01DX009 (ip), vehicle: saline with Tween-80 100 % of control | dose: 100.0 mg/kg/injection, schedule: Q01DX009 (ip), vehicle: saline with Tween-80 106 % of control | dose: 200.0 mg/kg/injection, schedule: Q01DX009 (ip), vehicle: saline with Tween-80 93 % of control

CCCCCCCCC(C)NCCOC(=O)c1ccc(N)cc1 (configuration not stated)
inactive: dose: 9.38 mg/kg/injection, schedule: Q01DX001 (ip), vehicle: other 102 % of control | dose: 18.75 mg/kg/injection, schedule: Q01DX001 (ip), vehicle: other 101 % of control | dose: 37.5 mg/kg/injection, schedule: Q01DX001 (ip), vehicle: other 98 % of control

CCN(CC)CCOCC(=O)Nc1c(C)cccc1Cl
inactive: dose: 100.0 mg/kg/injection, schedule: Q04DX003 (ip), vehicle: saline sonified 93 % of control | dose: 200.0 mg/kg/injection, schedule: Q04DX003 (ip), vehicle: saline sonified 106 % of control
